According to ChEMBL document CHEMBL5512651, “Synthesis and biological evaluation of 4-imidazolidinone-containing compounds as potent inhibitors of the MDM2/p53 interaction” (Eur J Med Chem, 2024):
Activity calls are given as the source filed them. The rule behind the calls is not given here.

Assays:
[1] = biological target: Tumour suppressor p53/oncoprotein Mdm2 (Homo sapiens, UniProt Q00987); assay: Inhibition of MDM2/p53 (unknown origin) interaction by fluorescence polarization assay; type: protein assay
[2] = biological target: Tumour suppressor protein p53/Mdm4 (Homo sapiens, UniProt O15151); assay: Inhibition of MDM4/p53 (unknown origin) interaction by fluorescence polarization assay; type: protein assay
[3] = biological target: Cellular tumor antigen p53 (Homo sapiens) (UniProt P04637); assay: Activation of p53 pathway in human MOLM-13 cells assessed as increase in p53 level incubated for 24 hrs by Western blot analysis; type: cell-based; settings: filed as activator, dose 0.038-0.6 µM
[4] = biological target: Cellular tumor antigen p53 (Homo sapiens) (UniProt P04637); assay: Activation of p53 pathway in human MOLM-13 cells assessed as increase in p21 level incubated for 24 hrs by Western blot analysis; type: cell-based; settings: filed as activator, dose 0.038-0.6 µM
[5] = biological target: Cellular tumor antigen p53 (Homo sapiens) (UniProt P04637); assay: Activation of p53 pathway in human MOLM-13 cells assessed as increase in MDM2 level incubated for 24 hrs by Western blot analysis; type: cell-based; settings: filed as activator, dose 0.038-0.6 µM
MOLM-13 [6] = assay: Induction of apoptosis in human MOLM-13 cells assessed as increase in caspase-3 level at 0.15 to 0.6 uM incubated for 24 hrs by Western blot analysis; type: functional, cell-based; settings: dose 0.15-0.6 µM
[7] = biological target: Cellular tumor antigen p53 (Homo sapiens) (UniProt P04637); assay: Activation of p53 pathway in human MOLM-13 cells assessed as increase in PUMA mRNA level incubated for 24 hrs by qPCR analysis; type: cell-based; settings: filed as activator, dose 0.038-0.6 µM
MOLM-13 [8] = assay: Induction of apoptosis in human MOLM-13 cells assessed as viable cells at 0.1 uM incubated for 24 hrs by Annexin V-FITC/PI staining based flow cytometry (reference value: 95.1 %); type: functional; settings: read-out: Activity
MOLM-13 [9] = assay: Induction of apoptosis in human MOLM-13 cells assessed as early apoptotic cells at 0.1 uM incubated for 24 hrs by Annexin V-FITC/PI staining based flow cytometry (reference value: 4.44 %); type: functional
MOLM-13 [10] = assay: Induction of apoptosis in human MOLM-13 cells assessed as late apoptotic cells at 0.1 uM incubated for 24 hrs by Annexin V-FITC/PI staining based flow cytometry (reference value: 0.457 %); type: functional
MOLM-13 [11] = assay: Induction of apoptosis in human MOLM-13 cells assessed as early apoptotic cells at 0.3 uM incubated for 24 hrs by Annexin V-FITC/PI staining based flow cytometry (reference value: 4.44 %); type: functional
MOLM-13 [12] = assay: Induction of apoptosis in human MOLM-13 cells assessed as late apoptotic cells at 0.3 uM incubated for 24 hrs by Annexin V-FITC/PI staining based flow cytometry (reference value: 0.457 %); type: functional
MOLM-13 [13] = assay: Induction of apoptosis in human MOLM-13 cells assessed as necrotic cells at 0.3 uM incubated for 24 hrs by Annexin V-FITC/PI staining based flow cytometry (reference value: 0.020 %); type: functional
MOLM-13 [14] = assay: Induction of apoptosis in human MOLM-13 cells assessed as viable cells at 0.9 uM incubated for 24 hrs by Annexin V-FITC/PI staining based flow cytometry (reference value: 95.1 %); type: functional; settings: read-out: Activity
MOLM-13 [15] = assay: Induction of apoptosis in human MOLM-13 cells assessed as late apoptotic cells at 0.9 uM incubated for 24 hrs by Annexin V-FITC/PI staining based flow cytometry (reference value: 0.457 %); type: functional
MOLM-13 [16] = assay: Induction of apoptosis in human MOLM-13 cells assessed as early apoptotic cells at 2.7 uM incubated for 24 hrs by Annexin V-FITC/PI staining based flow cytometry (reference value: 4.44 %); type: functional
MOLM-13 [17] = assay: Induction of apoptosis in human MOLM-13 cells assessed as necrotic cells at 2.7 uM incubated for 24 hrs by Annexin V-FITC/PI staining based flow cytometry (reference value: 0.020 %); type: functional
MOLM-13 [18] = assay: Induction of apoptosis in human MOLM-13 cells assessed as viable cells at 8.1 uM incubated for 24 hrs by Annexin V-FITC/PI staining based flow cytometry (reference value: 95.1 %); type: functional; settings: read-out: Activity
MOLM-13 [19] = assay: Induction of apoptosis in human MOLM-13 cells assessed as early apoptotic cells at 8.1 uM incubated for 24 hrs by Annexin V-FITC/PI staining based flow cytometry (reference value: 4.44 %); type: functional
MOLM-13 [20] = assay: Induction of apoptosis in human MOLM-13 cells assessed as necrotic cells at 8.1 uM incubated for 24 hrs by Annexin V-FITC/PI staining based flow cytometry (reference value: 0.020 %); type: functional
MOLM-13 [21] = assay: Induction of apoptosis in human MOLM-13 cells assessed as viable cells at 24.3 uM incubated for 24 hrs by Annexin V-FITC/PI staining based flow cytometry (reference value: 95.1 %); type: functional; settings: read-out: Activity
MOLM-13 [22] = assay: Induction of apoptosis in human MOLM-13 cells assessed as early apoptotic cells at 24.3 uM incubated for 24 hrs by Annexin V-FITC/PI staining based flow cytometry (reference value: 4.44 %); type: functional
MOLM-13 [23] = assay: Induction of apoptosis in human MOLM-13 cells assessed as late apoptotic cells at 24.3 uM incubated for 24 hrs by Annexin V-FITC/PI staining based flow cytometry (reference value: 0.457 %); type: functional
MOLM-13 [24] = assay: Induction of apoptosis in human MOLM-13 cells assessed as necrotic cells at 24.3 uM incubated for 24 hrs by Annexin V-FITC/PI staining based flow cytometry (reference value: 0.020 %); type: functional
[25] = Antiproliferative activity against HEK293 cells incubated for 4 days by CCK8 assay; type: toxicity, cell-based; settings: human
[26] = Selectivity index, ratio of IC50 for HEK293 cells to IC50 for human A549 cells; type: toxicity; settings: HEK293 cells versus A549 cells, read-out: Ratio IC50
[27] = Selectivity index, ratio of IC50 for HEK293 cells to IC50 for human SW480 cells
[28] = biological target: Cellular tumor antigen p53 (Homo sapiens) (UniProt P04637); assay: Activation of p53 pathway in human HCT-116 cells assessed as increase in p53 level at 1 uM incubated for 24 hrs by Western blot analysis; type: cell-based; settings: filed as activator
[29] = biological target: Cellular tumor antigen p53 (Homo sapiens) (UniProt P04637); assay: Activation of p53 pathway in human HCT-116 cells assessed as increase in MDM2 level at 1 uM incubated for 24 hrs by Western blot analysis; type: cell-based; settings: filed as activator
[30] = biological target: Cellular tumor antigen p53 (Homo sapiens) (UniProt P04637); assay: Activation of p53 pathway in human A549 cells assessed as increase in p53 level at 1 uM incubated for 24 hrs by Western blot analysis; type: cell-based; settings: filed as activator
[31] = biological target: Cellular tumor antigen p53 (Homo sapiens) (UniProt P04637); assay: Activation of p53 pathway in human A549 cells assessed as increase in MDM2 level at 1 uM incubated for 24 hrs by Western blot analysis; type: cell-based; settings: filed as activator
[32] = biological target: Cellular tumor antigen p53 (Homo sapiens) (UniProt P04637); assay: Activation of p53 pathway in human HeLa cells assessed as increase in MDM2 level at 1 uM incubated for 24 hrs by Western blot analysis; type: cell-based
[33] = biological target: Cellular tumor antigen p53 (Homo sapiens) (UniProt P04637); assay: Activation of p53 pathway in human HeLa cells assessed as increase in p21 level at 1 uM incubated for 24 hrs by Western blot analysis; type: cell-based
HCT-116 = assay: cells; settings: Homo sapiens, HCT-116, 96 h
MOLM-13 [34] = assay: cells; settings: Homo sapiens, MOLM-13, 48 h
HeLa = assay: cells; settings: Homo sapiens, 96 h
SW480 = assay: cells; settings: Homo sapiens, SW480, 96 h

Sequence of Cellular tumor antigen p53 (Homo sapiens) (P04637 whole entry, looked up): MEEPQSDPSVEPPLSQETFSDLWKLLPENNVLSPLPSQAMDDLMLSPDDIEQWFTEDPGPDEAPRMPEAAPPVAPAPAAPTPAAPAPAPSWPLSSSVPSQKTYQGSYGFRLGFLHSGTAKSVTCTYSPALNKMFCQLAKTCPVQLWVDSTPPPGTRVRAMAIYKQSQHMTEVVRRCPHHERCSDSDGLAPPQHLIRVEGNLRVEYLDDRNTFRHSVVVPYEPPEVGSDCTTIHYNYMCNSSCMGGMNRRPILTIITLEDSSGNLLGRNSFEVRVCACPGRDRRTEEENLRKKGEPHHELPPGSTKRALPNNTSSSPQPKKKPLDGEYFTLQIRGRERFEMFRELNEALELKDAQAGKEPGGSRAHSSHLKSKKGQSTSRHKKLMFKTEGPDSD
Sequence of Tumour suppressor p53/oncoprotein Mdm2 (P04637 whole entry): as the sequence (P04637 whole entry, looked up) above
Sequence of Tumour suppressor p53/oncoprotein Mdm2 (Q00987 whole entry): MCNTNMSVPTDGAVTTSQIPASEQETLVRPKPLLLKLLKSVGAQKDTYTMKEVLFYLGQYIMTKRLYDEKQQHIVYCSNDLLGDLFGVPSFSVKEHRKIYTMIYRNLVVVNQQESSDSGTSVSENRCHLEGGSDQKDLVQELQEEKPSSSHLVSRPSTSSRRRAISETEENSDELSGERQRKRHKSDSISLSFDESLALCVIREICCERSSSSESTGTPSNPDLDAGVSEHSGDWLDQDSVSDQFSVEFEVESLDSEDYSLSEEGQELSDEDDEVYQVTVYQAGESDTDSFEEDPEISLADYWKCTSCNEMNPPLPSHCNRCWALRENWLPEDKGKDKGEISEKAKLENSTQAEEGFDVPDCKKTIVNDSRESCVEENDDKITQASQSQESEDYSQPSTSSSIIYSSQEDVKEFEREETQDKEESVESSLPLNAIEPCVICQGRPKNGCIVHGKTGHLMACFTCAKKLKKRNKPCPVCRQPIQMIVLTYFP
Sequence of Tumour suppressor protein p53/Mdm4 (P04637 whole entry): as the sequence (P04637 whole entry, looked up) above
Sequence of Tumour suppressor protein p53/Mdm4 (O15151 whole entry): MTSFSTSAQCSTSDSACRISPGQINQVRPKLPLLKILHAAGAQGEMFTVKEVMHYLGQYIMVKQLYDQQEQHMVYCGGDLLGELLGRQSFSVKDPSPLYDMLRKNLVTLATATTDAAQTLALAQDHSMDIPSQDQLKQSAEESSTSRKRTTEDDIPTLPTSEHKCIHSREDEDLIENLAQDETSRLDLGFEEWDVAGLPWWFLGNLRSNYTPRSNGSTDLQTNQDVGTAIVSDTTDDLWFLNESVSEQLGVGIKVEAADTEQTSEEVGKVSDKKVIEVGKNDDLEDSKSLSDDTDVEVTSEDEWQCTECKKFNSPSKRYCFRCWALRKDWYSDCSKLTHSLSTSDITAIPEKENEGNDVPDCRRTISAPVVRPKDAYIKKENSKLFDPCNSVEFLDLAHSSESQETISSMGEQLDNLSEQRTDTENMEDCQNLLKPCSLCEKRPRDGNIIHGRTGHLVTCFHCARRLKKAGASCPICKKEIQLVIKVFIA

COc1cc(C(=O)O)ccc1N1CN2[C@@H](CC(C)(C)C)[C@@]3(CNc4cc(Cl)ccc43)[C@@H](c3cccc(Cl)c3)[C@@H]2C1=O
Ki [1]: 0.0004 µM
Ki [2]: > 27 µM
Activity [3]: Dose-Dependent Effect
Activity [4]: Dose-Dependent Effect
Activity [5]: Dose-Dependent Effect
Activity (MOLM-13 [6]): Active
Activity [7]: Dose-Dependent Effect
viability at 0.1 µM (MOLM-13 [8]): 83.8%
Activity (MOLM-13 [9]): 15.2%
Activity (MOLM-13 [10]): 0.797%
Activity (MOLM-13 [11]): 24.4%
Activity (MOLM-13 [12]): 0.998%
Activity (MOLM-13 [13]): 0.179%
viability at 0.9 µM (MOLM-13 [14]): 50%
Activity (MOLM-13 [15]): 1.06%
Activity (MOLM-13 [16]): 68.6%
Activity (MOLM-13 [17]): 0.125%
viability at 8.1 µM (MOLM-13 [18]): 27.4%
Activity (MOLM-13 [19]): 71%
Activity (MOLM-13 [20]): 0.176%
viability at 24.3 µM (MOLM-13 [21]): 8.63%
Activity (MOLM-13 [22]): 89.4%
Activity (MOLM-13 [23]): 1.96%
Activity (MOLM-13 [24]): 0.047%
IC50 at 4 days [25]: 9.65 µM
selectivity ratio [26]: 52
Ratio IC50 [27]: 1.6
Activity [28]: Active
Activity [29]: Active
Activity [30]: Active
Activity [31]: Active
Activity [32]: inactive
Activity [33]: inactive
IC50 (HCT-116): 0.0281 µM
IC50 (MOLM-13 [34]): 0.0008 µM
IC50 (HeLa): 12.3 µM
IC50 (SW480): 5.94 µM
